These results are taken from patent publication US20120095055A1, “HEXAHYDROCYCLOPENTYL[f]INDAZOLE 5-HYDROXYMETHYL ETHANOLS AND DERIVATIVES THEREOF AS SELECTIVE GLUCOCORTICOID RECEPTOR MODULATORS” (Merck Sharp & Dohme, Corp., priority 2009, published 2012).

The test deals with T1, human GR (Homo sapiens, UniProt P04150).
T1 construct: naturally expresses the human GR; endogenous in cells
T1 sequence (P04150 1-777): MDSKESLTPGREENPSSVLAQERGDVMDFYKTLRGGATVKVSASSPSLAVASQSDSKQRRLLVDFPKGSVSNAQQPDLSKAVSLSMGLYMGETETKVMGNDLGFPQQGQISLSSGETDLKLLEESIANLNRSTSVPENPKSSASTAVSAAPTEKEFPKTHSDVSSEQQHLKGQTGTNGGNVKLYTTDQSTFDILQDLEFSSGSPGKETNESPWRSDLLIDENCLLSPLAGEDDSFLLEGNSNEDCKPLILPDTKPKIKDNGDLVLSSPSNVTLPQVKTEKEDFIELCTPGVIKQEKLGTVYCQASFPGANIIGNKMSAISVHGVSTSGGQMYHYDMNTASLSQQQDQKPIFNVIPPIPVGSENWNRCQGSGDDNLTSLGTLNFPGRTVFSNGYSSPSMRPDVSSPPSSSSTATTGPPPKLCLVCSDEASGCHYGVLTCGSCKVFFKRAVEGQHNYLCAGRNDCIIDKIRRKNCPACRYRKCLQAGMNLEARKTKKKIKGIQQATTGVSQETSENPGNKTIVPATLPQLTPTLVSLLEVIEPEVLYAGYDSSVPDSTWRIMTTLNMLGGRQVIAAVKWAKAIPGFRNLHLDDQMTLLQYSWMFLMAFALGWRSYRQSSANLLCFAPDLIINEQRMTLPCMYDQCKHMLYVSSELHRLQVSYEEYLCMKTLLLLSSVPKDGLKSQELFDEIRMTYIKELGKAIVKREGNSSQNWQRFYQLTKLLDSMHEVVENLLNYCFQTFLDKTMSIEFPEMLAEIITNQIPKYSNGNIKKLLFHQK
Nature of the test: Transrepression Assay (GITAR), TNFα-β-lactamase reporter in U937 cells. The test is classed as cell-based. To be noted: for Emax: U-937, activity repressed by 100 nM dexamethasone set as 100%; for EC50: inflection point (IP), TNFα promoter β-lactamase reporter, PMA/LPS; for Transrepression U937 Cells GITAR Emax (%): activity repressed by 100 nM dexamethasone set as 100%. The source says:
This assay assesses the ability of test compounds to control transcription from the TNFα-β-lactamase reporter gene in U937 cells, a human myelomonocytic leukemia cell line that naturally expresses the human GR. The assay measures compound dependent-repression of the TNFa promoter linked to a reporter gene.
The human U937 cells that had been stablely transfected with the TNF-α promoter driving β-lactamase are used for this assay. U937 cells contain an endogenous glucocorticoid receptor (GR). Cells are maintained in RPMI 1640 Growth medium (Gibco Cat#11875-093) containing 25 mM HEPES, 10% FBS, 2 mM L-Glutamine, 1 mM Sodium pyruvate, 25 μg/ml Gentamicin (Gibco Cat#15710-064), 1:1000 2-Mercaptoethanol (Gibco Cat#21985-023) and 0.8 mg/ml G418 (Gibco Cat#10131-027). The density of the cells in the flask needs to be about 1×106-3×10^6/ml at the time of harvest. Usually, the cells are split to 1.2˜1.4×10^5/ml (1:10) 3 days prior to the assay. 50,000 cells/well are plated in 96 well black-walled plates the day of assay. Test compounds are added 10 μL/well, and cells are incubated at 37° C. for 30˜45 min. For assaying compounds, first dilute 1:10 in DMSO to make 1 mM, then further dilute 1:100 in medium to make 10× stock prior to adding to the cells. Add 50 ng/ml PMA (Sigma, cat# P8139) 10 μL/well to a final concentration 5 ng/ml, and 1 μg/ml LPS (Sigma, cat# L4130) 10 μL/well to a final concentration 100 ng/ml. Incubate cells at 37° C. overnight for ˜18 hr. PMA is stored frozen as 100 μg/ml stock in DMSO. Dilute 1:10 in DMSO for a working stock of 10 μg/ml and store at −20 C. For assaying, dilute the 10 μg/ml working stock 1:200 in medium to make a 10× solution (50 ng/ml). Store frozen LPS at 1 mg/ml in PBS, dilute 1:1000 in medium to make 10× (1 μg/ml) for the assay. Add 6× loading buffer (CCF2-AM) 20 μL/well, and incubate at room temperature for 70˜90 min. […] The activity repressed by 100 nM dexamethasone alone is set as 100% activity.

As usually defined, the Emax is the greatest response seen or fitted, relative to the assay's reference. The EC50 is the concentration at which the effect is half-maximal. Read a high EC50 as lower potency in that assay. The molecule `C[C@]12Cc3cnn(-c4ccc(F)cc4)c3C=C1CC[C@@]2(CO)CC(O)c1ccccn1` (single isomer, unassigned) [Example 1a] yielded an Emax of 93% and an EC50 of 5.6 nM.

As for `C[C@]12Cc3cnn(-c4ccc(F)cc4)c3C=C1CC[C@@]2(CO)CC(O)c1ccccn1` (single isomer, unassigned) [Example 1b], the “Transrepression U937 Cells GITAR Emax (%)” value came out at 91.7% and the EC50 came to 24 nM.

As to `Cc1ccc(C(O)C[C@]2(CO)CCC3=Cc4c(cnn4-c4ccc(F)cc4)C[C@@]32C)cc1` (single isomer, unassigned) [Example 2a], the “Transrepression U937 Cells GITAR Emax (%)” value turned out to be 85.0% and the EC50 turned out to be 137 nM.

Turning to `Cc1ccc(C(O)C[C@]2(CO)CCC3=Cc4c(cnn4-c4ccc(F)cc4)C[C@@]32C)cc1` (single isomer, unassigned) [Example 2b], the Emax came out at 94.4% and the EC50 came to 235 nM.

In the case of `C[C@]12Cc3cnn(-c4ccc(F)cc4)c3C=C1CC[C@@]2(CO)CC(O)c1ccccc1Cl` (single isomer, unassigned) [Example 3a], the Emax is 93.3% and the 50% effective concentration (EC50) was 37.6 nM.

On to `C[C@]12Cc3cnn(-c4ccc(F)cc4)c3C=C1CC[C@@]2(CO)CC(O)c1ccccc1Cl` (single isomer, unassigned) [Example 3b], for which the “Transrepression U937 Cells GITAR Emax (%)” value is listed as 99.6% and the midpoint of the response, the EC50, lay at 6 nM.

The molecule `Cc1cccc(C(O)C[C@]2(CO)CCC3=Cc4c(cnn4-c4ccc(F)cc4)C[C@@]32C)c1` (single isomer, unassigned) [Example 5a] came in with an Emax of 84.7% and an EC50 of 86.1 nM.

For `Cc1cccc(C(O)C[C@]2(CO)CCC3=Cc4c(cnn4-c4ccc(F)cc4)C[C@@]32C)c1` (single isomer, unassigned) [Example 5b], the “Transrepression U937 Cells GITAR Emax (%)” value turned out to be 91.8% and a half-maximal response (EC50) required 29 nM.

For the molecule `C[C@]12Cc3cnn(-c4ccc(F)cc4)c3C=C1CC[C@@]2(CO)CC(O)c1cc(F)cc(Cl)c1` (single isomer, unassigned) [Example 6a], the Emax was found to be 104% and the EC50 was 35.7 nM.

Take `C[C@]12Cc3cnn(-c4ccc(F)cc4)c3C=C1CC[C@@]2(CO)CC(O)c1cc(F)cc(Cl)c1` (single isomer, unassigned) [Example 6b]: the “Transrepression U937 Cells GITAR Emax (%)” value turned out to be 98.3% and a half-maximal response (EC50) required 68.8 nM.

The molecule `C[C@]12Cc3cnn(-c4ccc(F)cc4)c3C=C1CC[C@@]2(CO)CC(O)c1cccc(C(F)(F)F)c1` (single isomer, unassigned) [Example 7a] showed a maximal response (Emax) of 95.3% and an EC50 of 87.6 nM.

`C[C@]12Cc3cnn(-c4ccc(F)cc4)c3C=C1CC[C@@]2(CO)CC(O)c1cccc(C(F)(F)F)c1` (single isomer, unassigned) [Example 7b]: the “Transrepression U937 Cells GITAR Emax (%)” value turned out to be 98.4% and the EC50 is 44.7 nM.

As for `C[C@]12Cc3cnn(-c4ccc(F)cc4)c3C=C1CC[C@@]2(CO)CC(O)c1ncccc1F` (single isomer, unassigned) [Example 10a], the Emax was 89.2% and the EC50 worked out at 16.5 nM.

With `C[C@]12Cc3cnn(-c4ccc(F)cc4)c3C=C1CC[C@@]2(CO)CC(O)c1ncccc1F` (single isomer, unassigned) [Example 10b], the “Transrepression U937 Cells GITAR Emax (%)” value worked out at 93.9% and the EC50 stood at 4 nM.

Regarding `C[C@]12Cc3cnn(-c4ccc(F)cc4)c3C=C1CC[C@@]2(CO)CC1OC(=O)c2ccccc21` (single isomer, unassigned) [Example 12a], the Emax worked out at 78.8% and the EC50 came to 93.1 nM.

With `C[C@]12Cc3cnn(-c4ccc(F)cc4)c3C=C1CC[C@@]2(CO)CC1OC(=O)c2ccccc21` (single isomer, unassigned) [Example 12b], the “Transrepression U937 Cells GITAR Emax (%)” value was 93.0% and the EC50 was determined as 34.9 nM.

For `C[C@]12Cc3cnn(-c4ccc(F)cc4)c3C=C1CC[C@@]2(CO)CC(O)c1ccccc1` (single isomer, unassigned) [Example 13a], the Emax came out at 91% and the EC50 turned out to be 3.9 nM.

For `C[C@]12Cc3cnn(-c4ccc(F)cc4)c3C=C1CC[C@@]2(CO)CC(O)c1ccccc1` (single isomer, unassigned) [Example 13b], the “Transrepression U937 Cells GITAR Emax (%)” value is 96.4% and the EC50 stood at 18 nM.

In the case of `CC(C)C(O)C[C@]1(CO)CCC2=Cc3c(cnn3-c3ccc(F)cc3)C[C@@]21C` (single isomer, unassigned) [Example 14a], the Emax stood at 82.2% and a half-maximal effect (EC50) was put at 1130 nM.

Turning to `CC(C)C(O)C[C@]1(CO)CCC2=Cc3c(cnn3-c3ccc(F)cc3)C[C@@]21C` (single isomer, unassigned) [Example 14b], the “Transrepression U937 Cells GITAR Emax (%)” value was 82.3% and the EC50 was found to be 249 nM.

The molecule `C[C@]12Cc3cnn(-c4ccc(F)cc4)c3C=C1CC[C@@]2(CO)CC(O)c1cccnc1` (single isomer, unassigned) [Example 15a] showed an Emax of 87.7% and an EC50 of 56.3 nM.

As for `C[C@]12Cc3cnn(-c4ccc(F)cc4)c3C=C1CC[C@@]2(CO)CC(O)c1cccnc1` (single isomer, unassigned) [Example 15b], the “Transrepression U937 Cells GITAR Emax (%)” value amounted to 80.6% and the EC50 amounted to 98.5 nM.

Molecule `C[C@]12Cc3cnn(-c4ccc(F)cc4)c3C=C1CC[C@@]2(CO)CC(O)c1ccncc1` (single isomer, unassigned) [Example 17a] showed an Emax of 86.1% and an EC50 of 75.3 nM.

For `C[C@]12Cc3cnn(-c4ccc(F)cc4)c3C=C1CC[C@@]2(CO)CC(O)c1ccncc1` (single isomer, unassigned) [Example 17b], the “Transrepression U937 Cells GITAR Emax (%)” value is 83.3% and a half-maximal response (EC50) required 59.7 nM.

For the molecule `C[C@]12Cc3cnn(-c4ccc(F)cc4)c3C=C1CC[C@@]2(CO)CC(O)C1CCCCC1` (single isomer, unassigned) [Example 18a, 1-cyclohexyl-2-[(4αS)-1-(4-fluorophenyl)-5-(hydroxymethyl)-4α-methyl-1,4,4α,5,6,7-hexahydrocyclopenta[f]indazol-5-yl]ethanol], the Emax was 93.1% and a half-maximal effect (EC50) was put at 7.9 nM.

Turning to `C[C@]12Cc3cnn(-c4ccc(F)cc4)c3C=C1CC[C@@]2(CO)CC(O)C1CCCCC1` (single isomer, unassigned) [Example 18b, 1-cyclohexyl-2-[(4αS)-1-(4-fluorophenyl)-5-(hydroxymethyl)-4α-methyl-1,4,4α,5,6,7-hexahydrocyclopenta[f]indazol-5-yl]ethanol], the “Transrepression U937 Cells GITAR Emax (%)” value was determined as 97.7% and the EC50 came out at 25.7 nM.

Take `C[C@]12Cc3cnn(-c4cccc(F)c4)c3C=C1CC[C@@]2(CO)CC(O)c1ccccn1` (single isomer, unassigned) [Example 19a]: the Emax came out at 91.2% and the EC50 worked out at 32.7 nM.

In the case of `C[C@]12Cc3cnn(-c4cccc(F)c4)c3C=C1CC[C@@]2(CO)CC(O)c1ccccn1` (single isomer, unassigned) [Example 19b], the “Transrepression U937 Cells GITAR Emax (%)” value is 86.7% and the EC50 worked out at 73.8 nM.
